This data set concerns nematodes. The data set is described as follows: Nematicide laboratory bioassay in ELISA plates, nematode mortality 24 h after treatment. Format: in vivo. On the procedure: Bioassays were designed to determine the efficacy of tested formulations, and included the following steps: • 1. nematode extraction from carrot disks using the mesh extraction method; • 2. counting of extracted nematodes in a sample of 100 μL of water; • 3. preferably, nematode count in such a sample is between 40-80 nematodes; • 4. determining efficacy in ELISA plates; • 5. preparing a stock solution that is 10 times more diluted than the main formulation for all treatments; • 6. for treatments tested at 5% or 1.5%, aliquots of 50 μL or 15 μL of the corresponding stock solution were introduced to a well, respectively. Volume was completed with 50 μL of the nematode extract, except for treatments tested at 1.5%, an additional 35 μL of distilled water was introduced to reach a total volume of 100 μL. Content of the well was sufficiently mixed with a pipette, to ensure proper distribution of both nematodes and treatment components; • 7. performing at least 6 replicates of every treatment. The flask containing the nematode colony was mixed by manual shaking every time before nematodes were introduced to the well. This way we ensure a somewhat homogenous nematode count and avoid nematodes settling at the bottom of the flask; • 8. keeping the whole ELISA plate in dark conditions for 24 hours after introduction of the treatment; and • 9. assessing nematode mortality 24 hours after treatment under stereoscope. Nematodes that were moving were considered alive. Nematodes that were not moving were poked with a fine brush, if they respond to the poking with slight movements, they were considered alive. If not, they were considered dead.
The only validity criterium was that nematode mortality in the negative controls should not exceed 10%.
The raw mortality data was analyzed using RStudio (version 1.4.1717). The data sets were subjected to Shapiro-Wilk test for normality (α=0.05). Data was not normally distributed; therefore, a Kruskal-Wallis test was applied. Where there was significance, a Wilcoxon rank sum t-test was performed for pairwise comparisons between treatment groups.

Setting [1] is: mean over replicates, 24 h, tested dose per Table 2.
The mark [2] stands for this setting: sum over replicates, 24 h, tested dose per Table 2.

“And” between values parts separate entries of the source, which are not always exact repeats. Equal entries are not always repeated.

With `CNC(=O)O/N=C(\SC)C(=O)N(C)C` [Oxamyl], under setting [1], the mean alive worked out at 20.50 and the mean dead was found to be 22.17. Moreover, the alive (nematodes counted alive per replicate well, 24 h after treatment, tested dose per Table 2) was 22 and 20 and 25 and 17 and 24 and 18 and 7 and 27 and 5 and 34 and 21 and 26. For the same compound, the Dead (nematodes counted dead per replicate well, 24 h after treatment, tested dose per Table 2 (5%, 1.5% or 1% w/v)) was 24 and 34 and 29 and 20 and 31 and 39 and 15 and 4 and 18 and 5 and 22 and 25. Under setting [2], this compound showed a total alive of 246 and a total dead of 266. The “Mortality (%) 24 h post exposure” value (tested dose per Table 2 (5%, 1.5% or 1% w/v)) amounted to 50.76%.

The values are drawn from patent US20260262638A1, “AGRICULTURAL COMPOSITION” (priority 2022, published 2026).
